doi:10.1101/2025.07.30.667614, “Steric control of signaling bias in the immunometabolic receptor GPR84” (bioRxiv, 2025)
Like-named read-outs stand apart in the source and are kept apart here.

Legend:
wild type GPR84 [1] = target: T1, wild type GPR84 (Homo sapiens, UniProt Q9NQS5); assay: pThr263/pThr264 immunoblot of immunoprecipitated GPR84-eYFP; assay type: cell-based; conditions: 1 μM
T1 construct: expressed in transfected cells
Procedure: eYFP-linked receptor constructs were immunoprecipitated from 200 μl cell lysates using GFP-Trap® agarose beads (Proteintech) according to manufacturer’s instructions. Immunocomplexes were washed three times in washing buffer, resuspended in 100 μl 2 × SDS-PAGE sample buffer and incubated at 60 °C for 10 min. Following centrifugation at 2500g for 5 min, 20 μl of immunoprecipitated proteins was resolved by SDS-PAGE on 4% to 12% BisTris gels. After separation, the proteins were transferred electrophoretically onto nitrocellulose membrane, which was then blocked using 5% bovine serum albumin (BSA) in Tris-buffered saline (TBS, 50 mM Tris-Cl, 150 mM NaCl, pH 7.6) for 1 h at room temperature on an orbital shaker. The membrane was then incubated with appropriate primary antibody in 5% BSA in TBS supplemented with 0.1% Tween (TBS-T) overnight at 4 °C. Anti-pThr^263/pThr^264 antiserum was diluted 1:2000 and anti-GFP was diluted 1:10,000. Subsequently, the membrane was washed (3 × 10 min with TBS-T) and incubated for 2 h with anti-rabbit secondary antibody diluted 1:10,000 in 5% BSA in TBS-T. After washing (3 × 10 min with TBS-T), proteins were detected using an Odyssey imaging system (Licor) according to the manufacturer’s instructions.

[2] = target: T2, GPR84 F187A (GPR84-Gi2α fusion protein) (Homo sapiens, UniProt Q9NQS5, F187A); assay: [35S]GTPγS binding assay; assay type: biochemical
T2 construct: FLAG (N); Gαi2-Cys352Ile (fusion partner) (C); expressed in transfected cells
Procedure: (§1) Membranes were generated from Flp-In™ T-REx™ 293 cells following 100 ng/ml doxycycline treatment to induce receptor expression. Cells were washed with ice-cold phosphate-buffered saline (PBS), removed from dishes by scraping and centrifuged at 1,800 x g for 5 min at 4 °C. Pellets were resuspended in TE buffer (10mM Tris-HCl, 0.1 mM EDTA; pH 7.4) containing a protease inhibitor mixture and homogenized with a 5 ml hand-held homogenizer. Samples were centrifuged at 450 x g for 5 min at 4 °C and the supernatant was further centrifuged at 90,000 x g for 45 min at 4 °C. The resulting pellet was resuspended in TE buffer and protein content was assessed using a BCA protein assay kit.
(§2) Prepared membrane protein (3 μg per well) was incubated in assay buffer (20 mM HEPES, 5 mM MgCl2, 160 mM NaCl, 0.05 % fatty-acid-free bovine serum albumin; pH 7.4) containing the indicated ligand concentrations. The reaction was initiated by addition of [^35S]GTPγS (100 nCi per reaction) with 1 μM GDP, and incubated at 30 °C for 60 min. The reaction was terminated by rapid vacuum filtration through GF/C glassfibre filter-bottom 96-well microplates using a UniFilter FilterMate Harvester (PerkinElmer). Unbound radioligand was removed from filters by three washes with ice-cold PBS. Ultima Gold™ XR was added to dried filters, and [^35S]GTPγS binding quantified by liquid scintillation spectroscopy.

[3] = target: T3, GPR84 S169A (GPR84-Gi2α fusion protein) (Homo sapiens, UniProt Q9NQS5, S169A); assay: [35S]GTPγS binding assay; assay type: biochemical; conditions: for fold reduced potency compared to wild type: Ser169Ala; for Emax: read-out: Emax ± SEM
T3 construct: FLAG (N); Gαi2-Cys352Ile (fusion partner) (C); expressed in transfected cells
Procedure: as §1, §2

GPR84 Y332A = target: T4, GPR84 Y332A (Homo sapiens, UniProt Q9NQS5, Y332A); assay: [35S]GTPγS binding assay; assay type: biochemical; conditions: for Emax: read-out: Emax ± SEM
T4 construct: FLAG (N); Gαi2-Cys352Ile (fusion partner) (C); expressed in transfected cells
Procedure: as §1, §2

[4] = target: T5, GPR84 N104A (GPR84-Gi2α fusion protein) (Homo sapiens, UniProt Q9NQS5, N104A); assay: [35S]GTPγS binding assay; assay type: biochemical; conditions: for fold reduction in potency compared to wild type: Asn104Ala; for Emax: read-out: Emax ± SEM
T5 construct: FLAG (N); Gαi2-Cys352Ile (fusion partner) (C); expressed in transfected cells
Procedure: as §1, §2

GPR84 N362S = target: T6, GPR84 N362S (Homo sapiens, UniProt Q9NQS5, N362S); assay: [35S]GTPγS binding assay; assay type: biochemical; conditions: for Emax: read-out: Emax ± SEM
T6 construct: FLAG (N); Gαi2-Cys352Ile (fusion partner) (C); expressed in transfected cells
Procedure: as §1, §2

GPR84 Y332F = target: T7, GPR84 Y332F (Homo sapiens, UniProt Q9NQS5, Y332F); assay: [35S]GTPγS binding assay; assay type: biochemical; conditions: for Emax: read-out: Emax ± SEM
T7 construct: FLAG (N); Gαi2-Cys352Ile (fusion partner) (C); expressed in transfected cells
Procedure: as §1, §2

wild type GPR84 [5] = target: T1, wild type GPR84; assay: pThr263/pThr264 GPR84 phosphorylation assay (magnetic bead capture); assay type: cell-based; conditions: for EC50: 5 min stimulation, read-out: pEC50 ± SEM, phosphorylation of Thr263 and Thr264 (converted)
Procedure: Flp-In™ TREx™ 293 cells engineered to express FLAG-GPR84-eYFP were seeded onto poly-D-lysine-coated clear 96-well plates at a density of 5 x 10^4 cells/well and grown overnight before treatment with 100 ng/ml doxycycline to induce receptor expression. After 24 h, cells were serum starved for 2 hours then stimulated with the indicated agonists, prepared in serum free media, for 5 min at 37 °C. After washing with ice-cold PBS, cells were lysed in 100 μl/well lysis buffer (150 mM NaCl, 50 mM Tris-HCl, 5 mM EDTA, 1% IGEPAL (Nonidet P-40), 0.5% deoxycholic acid, and 0.1% SDS; pH 7.4) supplemented with protease and phosphatase inhibitor cocktail on an orbital shaker for 1 hour at 4 °C. Lysates were cleared by centrifugation at 3700 × g for 20 min at 4 °C and 80 μl of supernatants transferred into 96-U-bottom-well assay plates (Greiner Bio-One). GFP-Trap® magnetic agarose beads (1 μl/well) were washed then diluted in lysis buffer to give a total volume of 20 μl of bead slurry per well before adding to supernatant. Assay plates were incubated on a microplate shaker at 700 rpm for 2 h at 4 °C then washed three times with 100 μl of PBS with 0.1% Tween-20 (PBS-T) under magnetic force using a handheld magnetic separation block (Milliplex, Millipore). After washing, anti-pThr263/pThr264 antiserum was diluted 1:1000 in PBS-T then 60 μl added to assay plate. The plates were then incubated overnight at 4 °C on a microplate shaker. After another wash cycle (3 x with PBS-T), anti-rabbit horseradish […] (HRP)-linked secondary antibody was added to PBS-T to a final dilution of 1:10,000 and incubated on a microplate shaker for 2 h at room temperature. After a further wash cycle, 100 μl of TMB substrate solution was added to each well and the plates were incubated for 15 min. The reaction was stopped by the addition of 100 μl of 0.3 M sulphuric acid. The assay plates were then placed on a magnetic separation block and 100 μl of the supernatant was transferred to a transparent 96-well F-bottom plate. The OD at 450 nm was then read on a PHERAstar FS plate reader (BMG Labtech).

[6] = F187A, read-out: pEC50 ± SEM (converted)

T7 sequence (Q9NQS5 whole entry Y332F, the tested form may be a part): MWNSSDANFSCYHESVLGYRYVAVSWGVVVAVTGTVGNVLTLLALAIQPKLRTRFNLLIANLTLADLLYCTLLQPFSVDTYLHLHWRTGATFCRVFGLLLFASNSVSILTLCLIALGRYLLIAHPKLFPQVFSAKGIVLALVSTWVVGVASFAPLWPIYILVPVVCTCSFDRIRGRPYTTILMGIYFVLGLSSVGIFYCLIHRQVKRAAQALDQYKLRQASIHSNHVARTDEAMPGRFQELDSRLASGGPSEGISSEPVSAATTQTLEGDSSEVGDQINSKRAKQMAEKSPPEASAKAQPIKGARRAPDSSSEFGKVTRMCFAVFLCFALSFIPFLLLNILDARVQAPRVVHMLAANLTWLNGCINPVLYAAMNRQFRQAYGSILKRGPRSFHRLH
T4 sequence (Q9NQS5 whole entry Y332A, the tested form may be a part): as the sequence (Q9NQS5 whole entry Y332F, the tested form may be a part) above, with F332A counted along it
T3 sequence (Q9NQS5 whole entry S169A, the tested form may be a part): as the sequence (Q9NQS5 whole entry Y332F, the tested form may be a part) above, with S169A, F332Y counted along it
T5 sequence (Q9NQS5 whole entry N104A, the tested form may be a part): as the sequence (Q9NQS5 whole entry Y332F, the tested form may be a part) above, with N104A, F332Y counted along it
T1 sequence (Q9NQS5 whole entry): as the sequence (Q9NQS5 whole entry Y332F, the tested form may be a part) above, with F332Y counted along it
T2 sequence (Q9NQS5 whole entry F187A, the tested form may be a part): as the sequence (Q9NQS5 whole entry Y332F, the tested form may be a part) above, with F187A, F332Y counted along it
T6 sequence (Q9NQS5 whole entry N362S, the tested form may be a part): as the sequence (Q9NQS5 whole entry Y332F, the tested form may be a part) above, with F332Y, N362S counted along it

SMILES	phosphorylation of Thr263 and Thr264 (immunoblot) (wild type GPR84 [1])	EC50 [2, 6]	EC50 ([3]; [35S]GTPγS, S169A)	fold reduced potency compared to wild type ([3]; [35S]GTPγS)	EC50 (GPR84 Y332A; [35S]GTPγS, Y332A)	fold reduction in potency compared to wild type ([4]; [35S]GTPγS)	EC50 ([4]; [35S]GTPγS, N104A)	EC50 (GPR84 N362S; [35S]GTPγS, N362S)	EC50 (GPR84 Y332F; [35S]GTPγS, Y332F)	EC50 (wild type GPR84 [5])	further results
[O-][n+]1cc(O)cc(CCc2ccc(Cl)c(C(F)(F)F)c2)c1 [OX04529]	ineffective	0.102 nM	417 nM	~300 fold	0.347 nM	5 fold	3.98 nM	16.6 nM	2.57 nM	12.3 nM	fold greater potency than at wild type ([2]; Phe187Ala): more than 10 fold; EC50 ([2]; Phe187Ala, read-out: EC50): ~0.1 nM; Emax [3]: 30 ± 2%; Emax (GPR84 Y332A): 50 ± 12%; Emax [4]: 68 ± 8%; Emax (GPR84 N362S): 126 ± 30%; Emax (GPR84 Y332F): 134 ± 12%; potency and efficacy in promoting phosphorylation of Thr263/Thr264 (wild type GPR84 [5]; magnetic bead capture assay): weak efficacy
Cc1cc(CCCc2cc(O)c[n+]([O-])c2)ccc1Cl [OX04954]	promoted phosphorylation	0.107 nM	380 nM	more than 1000 fold	0.427 nM	~10 fold	11.7 nM	24 nM	4.17 nM	7.59 nM	Emax ([3]; [35S]GTPγS, S169A): 47 ± 11%; Emax (GPR84 Y332A; [35S]GTPγS, Y332A): 60 ± 11%; Emax ([4]; [35S]GTPγS, N104A): 130 ± 20%; Emax (GPR84 N362S; [35S]GTPγS, N362S): 124 ± 19%; Emax (GPR84 Y332F; [35S]GTPγS, Y332F): 151 ± 10%
